These results are taken from publication PMC7156456, “Modulation of virus-induced NF-κB signaling by NEMO coiled coil mimics” (Nature Communications, 2020).

Structures are written as SMILES.

The target of one data set is T1, vFLIP/NEMO interaction (Human herpesvirus 8 type P, UniProt F5HEZ4).
T1 construct: vFLIP (1-178) and NEMO (150-272) were cloned into pET28a vector; made in house; host or cells: E. coli BL21(DE3)
Put plainly: biochemical. It counts as binding, Kaposi's sarcoma herpesvirus (KSHV). How it is done: For the competition assay, two-fold serial dilution of the different NEMO mimetics were prepared in DMSO then diluted in TR-FRET buffer to 5× and added in triplicates to a 384 low volume well plate. His-MBP vFLIP diluted to 5× in TR-FRET buffer (250 nM) was then added to each well and incubated for 15 min at RT. His-Biotinylated NEMO diluted to 5× in TR-FRET buffer (250 nM) was the added to the mixture followed by addition of 5× or 200 nM) streptavidin-XL665 and (5× or 1 nM) of the antibody-tagged fluorophore anti-MBPK labeled with Europium cryptate). The final concentration of the NEMO mimetics ranged from 0.195 μM to 100 μM. Total assay volume was 20 μL. The plate was incubated for 1 h at RT then read using BioTek Synergy NEO. Titration of non-biotinylated NEMO (0.0195-10 μM) was used as a positive control in every run. The effect of the peptides on vFLIP/NEMO interaction was normalized to the control and expressed as percent inhibition (% of control):
%ofcontrol=FRETCHD−FRETbackground/FRETcontrol−FRETbackground where FRET control is the TR-FRET signal in DMSO treated wells (highest signal) and FRET background is TR-FRET signal in wells containing the highest concentration of non-biotinylated NEMO (10 μM) which provides the lowest signal. Normalized TR-FRET data was plotted using Graphpad Prism.
Supplementary Figure 1. Schematic representation of the Time-resolved Fluorescence Energy Transfer (TR-FRET) binding assay. (a) Complexes of recombinant his-MBP vFLIP, biotinylated His-NEMO, Europium cryptate conjugated anti-MBP antibody and strepavidin XL665 were used to generate proximity for a FRET signal between the donor fluorophore Europium cryptate and the acceptor fluorophore strepavidin XL665. The TR-FRET signal was calculated as a ratiometric measurement of the acceptor fluoroscence emission at 665nm over the donor emission at 620nm multiplied by 10000. […] (d) Size exclusion chromatography of NEMO-vFLIP complex indicating a shift to the left in absorbance at 280nm when NEMO binds specifically to vFLIP. […]

A short description of the next data set: Serum stability assay. It counts as in vitro ADME. The following applies: 25% fetal bovine serum in RPMI, HPLC, read-out: initial peptide remained intact. How it is done: Time points of 30 min, 1 h, 2 h, 8 h, and 24 h were analyzed in triplicate. Each reaction was started upon addition of FBS to 60 μM peptide. Reactions were quenched at time points with addition of 100% EtOH, chilled on ice for 10 min, and pelleted at 11,752 × g. Supernatant was injected onto an Agilent analytical HPLC equipped with an XTerra RP18 3.5 µm 2.1 × 150 mm column (Part No. 186000410) and visualized at 220 nm. Integration of peak areas was used to determine percent degradation of peptides. Mass of cleaved products were determined using Matrix assisted laser desorption ion time of flight (MALDI-TOF) spectroscopy.

Data set [1] is described as follows: Thermal denaturation by circular dichroism. The following applies: 5–95 °C. It counts as physicochemical. How it is done: […] The spectra were averaged over 4 scans with the background subtracted to the analogous experimental conditions. Each sample was prepared in a 50 mM potassium fluoride solution in water (pH 7.4) to a final concentration of 20 μM. The concentrations of each peptide were determined by the UV absorption at 280 nm.
On the technique in general: Circular dichroism is the unequal absorption of left and right circularly polarised light.

For the next data set, the system named is BC-3-luc PEL xenograft. Description: PEL in vivo xenograft mouse model. The following applies: 20 mg/kg, 9 consecutive days. Also on record: species or system NOD-SCID mice. The protocol:
We injected BC-3-luc PEL cells into the peritoneal cavity of NOD-SCID mice and monitored tumor burden by bioluminescence imaging. […] Although the overall performance of our peptide is highly encouraging, further optimization of delivery and dosing will be essential to achieve more robust responses in vivo.
[…] BC3NFRen-luc#3 were injected intraperitoneally into 4-6 week-old male NOD/SCID mice (Jackson Laboratory, stock 001303). […] We monitored tumor burden or bioluminescence (photons/s/cm^2/steradian) by live imaging and weighing, with the sacrificial endpoint determined to be a net gain or loss of 10% body weight over a week.

T1 sequence (F5HEZ4 1-178): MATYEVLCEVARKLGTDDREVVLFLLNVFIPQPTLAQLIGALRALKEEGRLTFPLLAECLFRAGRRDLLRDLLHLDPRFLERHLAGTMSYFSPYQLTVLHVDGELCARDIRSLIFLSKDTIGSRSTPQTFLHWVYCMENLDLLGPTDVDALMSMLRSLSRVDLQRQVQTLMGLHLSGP

With `CC[C@H](C)[C@H](NC(=O)[C@H](CC(C)C)NC(=O)[C@H](CCC(=O)O)NC(=O)[C@H](CC(=O)O)NC(=O)[C@@H](NC(=O)[C@H](CCCCn1cc(COCc2cn(CCCC[C@H](NC(=O)[C@H](CC(C)C)NC(=O)[C@H](CCCNC(=N)N)NC(=O)[C@H](CCCNC(=N)N)NC(=O)[C@@H](NC(=O)[C@H](CCC(=O)NC3CCCCC3)NC(=O)[C@H](CCC(=O)O)NC(=O)[C@H](Cc3c[nH]c4ccccc34)NC(=O)[C@H](CC(C)C)NC(=O)[C@H](CCC(N)=O)NC(=O)[C@H](CCCNC(=N)N)NC(=O)[C@@H](NC(=O)[C@H](Cc3c[nH]c4ccccc34)NC(=O)[C@H](CCC(=O)O)NC(C)=O)[C@@H](C)CC)[C@@H](C)CC)C(N)=O)nn2)nn1)NC(=O)[C@H](CCCNC(=N)N)NC(=O)[C@H](Cc1ccccc1)NC(=O)[C@H](CC(C)C)NC(=O)[C@H](CCCNC(=N)N)NC(=O)[C@H](Cc1c[nH]cn1)NC(=O)[C@@H](NC(=O)[C@H](CCC(=O)O)NC(C)=O)[C@@H](C)CC)[C@@H](C)CC)C(=O)N[C@@H](CCCNC(=N)N)C(N)=O` [CHD3^NEMO], at vFLIP/NEMO interaction, the Ki – broadly, a dissociation constant, usually derived from enzyme kinetics or from competition with a known ligand – was 6.9 ± 1.4 µM. In addition, in “Serum stability assay”, the remaining at 24 h, 60 μM is about 80%. For the same compound, the “conformational stability (helix percentage)” value in data set [1] was “retain a significant proportion of helix percentage at high temperatures”. Besides, the toxicity entry in the data set on BC-3-luc PEL xenograft is listed as “without any observed toxicity”.
